According to patent publication US7459585B2, “Benzene derivatives and pharmaceutical use thereof” (Ajinomoto Co., Inc., priority 1998, dated 2008):
In brackets after ≈: the same amount, converted by molar mass.

Tested on: NF-kappa B
Test: Evaluation of NF-kappa B inhibition (β-gal reporter, IL-1β-induced)
Type: cell-based
Settings: Homo sapiens; β-gal reporter with NF-kappa B binding motif in SV40 large T-immortalized HUVEC; induced with 1 ng/ml IL-1β; read-out: NF-kB inhibiting activity IC50
Protocol: Cells used for the tests were those prepared by stably introducing E. coli β-galactosidase (β-gal) genes driven by SV 40 minimum promoter fused with 4 tandems of the AP-1 binding motif derived from human MMP-1 gene enhancer into human normal umbilical cord vein endothelial cells (HUVEC) immortalized with SV 40 large T antigen. The cells were subcultured in RPMI medium containing 10% of FBS, and were seeded on a 96-well plate in a concentration of 1×10^4/well on a day before the start of the experiments. A compound of the present invention was dissolved in DMSO to obtain a solution of a proper concentration, which was added into the 96-well plate so that the final DMSO concentration would be not higher than 1%. 30 minutes after the addition of the compound, phorbol-12-myristate-13-acetate (PMA) was added to each well so as to obtain the final concentration of 50 ng/ml. β-gal activity was determined 16 hours after with a chemiluminescent substrate (Galacton-Light-Plus: Boehringer Mannheim) according to a protocol attached to the reagent. A Luminescence detector (ATTO) was used for the determination.
The tests were carried out in the same manner as that of Example 56. Concretely, the AP-1 binding motif of the reporter genes in Example 56 was replaced with the NF-kappa B binding motif derived from immunoglobulin kappa light chain enhancer, and NF-kappa B transcriptional activity was induced with 1 ng/ml of IL-1β in place of PMA.

**Q.** How did the IC50 turn out when `CC1(C)CC1C(=O)Nc1ccc(C(N)c2ccc(NC(=O)C3CC3(C)C)cc2)cc1` (centres unmarked) [Compound 9] was run?
**A.** 2.5 µg/mL (≈ 6.16 µM)

**Q.** With `COc1ccc(CCCNc2ccc(Cc3ccc(NC(=O)C4CC4(C)C)cc3)cc2)cc1` (centres unmarked) [Compound 28] as the compound, how does the IC50 read?
**A.** 0.1 µg/mL (≈ 0.226 µM)

**Q.** For `COc1ccc(CCNc2ccc(Cc3ccc(NC(=O)C4CC4(C)C)cc3)cc2)cc1` (centres unmarked) [Compound 27], which IC50 is on record?
**A.** 0.1 µg/mL (≈ 0.233 µM)

**Q.** Which IC50 does the source give for `COc1ccc(CCC(=O)Nc2ccc(Cc3ccc(NC(=O)C4CC4(C)C)cc3)cc2)cc1` (centres unmarked) [Compound 26] here?
**A.** 0.1 µg/mL (≈ 0.219 µM)

**Q.** How did the IC50 turn out when `COc1ccc(CC(=O)Nc2ccc(Cc3ccc(NC(=O)C4CC4(C)C)cc3)cc2)cc1` (centres unmarked) [Compound 24] was run?
**A.** 0.1 µg/mL (≈ 0.226 µM)

**Q.** `CC1(C)CC1C(=O)Nc1ccc(Cc2cccc(NC(=O)C3CC3(C)C)c2)cc1` (centres unmarked) [Compound 7] was tested. Which IC50 did it give?
**A.** 0.37 µg/mL (≈ 0.947 µM)

**Q.** With `CC1(C)CC1C(=O)Nc1ccc(CCc2ccc(NC(=O)C3CC3(C)C)cc2)cc1` (centres unmarked) [Compound 6] as the compound, how does the IC50 read?
**A.** 0.37 µg/mL (≈ 0.915 µM)

**Q.** `CC1(C)C[C@H]1C(=O)Nc1ccc(C(O)c2ccc(NC(=O)[C@@H]3CC3(C)C)cc2)cc1` [Compound 35] was tested. Which IC50 did it give?
**A.** > 5 µg/mL

**Q.** Which IC50 does the source give for `Cc1cc(Cc2ccc(NC(=O)C3CC3(C)C)c(C)c2)ccc1NC(=O)C1CC1(C)C` (centres unmarked) [Compound 38] here?
**A.** 0.5 µg/mL (≈ 1.19 µM)

**Q.** With `CC1(C)CC1C(=O)Nc1ccc(Cc2ccc(NC(=O)C3CCCN3)cc2)cc1` (centres unmarked) [Compound 43] as the compound, how does the IC50 read?
**A.** 0.1 µg/mL (≈ 0.255 µM)

**Q.** `CC1(C)CC1C(=O)Nc1ccc(C(CC#N)c2ccc(NC(=O)C3CC3(C)C)cc2)cc1` (centres unmarked) [Compound 19] was tested. Which IC50 did it give?
**A.** 1.2 µg/mL (≈ 2.79 µM)

**Q.** With `CC1(C)CC1C(=O)Nc1ccc(S(=O)(=O)c2ccc(NC(=O)C3CC3(C)C)cc2)cc1` (centres unmarked) [Compound 5] as the compound, how does the IC50 read?
**A.** > 5 µg/mL

**Q.** How did the IC50 turn out when `CC1(C)CC1C(=O)Nc1ccc(CSc2ccc(NC(=O)C3CC3(C)C)cc2)cc1` (centres unmarked) [Compound 52] was run?
**A.** 0.2 µg/mL (≈ 0.473 µM)

**Q.** Which IC50 does the source give for `CC1(C)CC1C(=O)Nc1ccc(C(=O)c2ccc(NC(=O)C3CC3(C)C)cc2)cc1` (centres unmarked) [Compound 1] here?
**A.** > 5 µg/mL

**Q.** Which IC50 does the source give for `CC1(C)CC1C(=O)Nc1ccc(C(CN)c2ccc(NC(=O)C3CC3(C)C)cc2)cc1` (centres unmarked) [Compound 18] here?
**A.** 3 µg/mL (≈ 7.15 µM)

**Q.** How did the IC50 turn out when `CC1(C)CC1C(=O)Nc1ccc(Oc2ccc(NC(=O)C3CC3(C)C)cc2)cc1` (centres unmarked) [Compound 4] was run?
**A.** 1.1 µg/mL (≈ 2.8 µM)

**Q.** `COc1ccc(CC(=O)Nc2ccc(C(O)c3ccc(NC(=O)C4CC4(C)C)cc3)cc2)cc1` (centres unmarked) [Compound 45] was tested. Which IC50 did it give?
**A.** 0.9 µg/mL (≈ 1.96 µM)

**Q.** Which IC50 does the source give for `CC1(C)CC1C(=O)Nc1ccc(C(O)c2ccc(NC(=O)Cc3ccc(Cl)cc3)cc2)cc1` (centres unmarked) [Compound 44] here?
**A.** 1.5 µg/mL (≈ 3.24 µM)

**Q.** How did the IC50 turn out when `CC1(C)C[C@@H]1C(=O)Nc1ccc(C(O)c2ccc(NC(=O)[C@@H]3CC3(C)C)cc2)cc1` (some centres unmarked) [Compound 34] was run?
**A.** 0.06 µg/mL (≈ 0.148 µM)

**Q.** For `CC1(C)CC1C(=O)Nc1ccc(Cc2ccc(NC(=O)C3CC3(Cl)Cl)cc2)cc1` (centres unmarked) [Compound 23], which IC50 is on record?
**A.** 0.1 µg/mL (≈ 0.232 µM)

**Q.** With `CC1(C)CC1C(=O)Nc1ccc(Sc2ccc(NC(=O)C3CC3(C)C)cc2)cc1` (centres unmarked) [Compound 2] as the compound, how does the IC50 read?
**A.** 0.1 µg/mL (≈ 0.245 µM)

**Q.** For `COc1ccc(CCCC(=O)Nc2ccc(Cc3ccc(NC(=O)C4CC4(C)C)cc3)cc2)cc1` (centres unmarked) [Compound 55], which IC50 is on record?
**A.** 0.1 µg/mL (≈ 0.212 µM)

**Q.** `CC(=O)NC(c1ccc(NC(=O)C2CC2(C)C)cc1)c1ccc(NC(=O)C2CC2(C)C)cc1` (centres unmarked) [Compound 10] was tested. Which IC50 did it give?
**A.** > 5 µg/mL

**Q.** `CC1(C)CC1C(=O)Nc1ccc(C(CN=[N+]=[N-])c2ccc(NC(=O)C3CC3(C)C)cc2)cc1` (centres unmarked) [Compound 17] was tested. Which IC50 did it give?
**A.** 2.5 µg/mL (≈ 5.61 µM)

**Q.** How did the IC50 turn out when `CC1(C)CC1C(=O)Nc1ccc(C(CC(=O)O)c2ccc(NC(=O)C3CC3(C)C)cc2)cc1` (centres unmarked) [Compound 20] was run?
**A.** 3 µg/mL (≈ 6.69 µM)

**Q.** With `CC1(C)CC1C(=O)Nc1ccc(Nc2ccc(NC(=O)C3CC3(C)C)cc2)cc1` (centres unmarked) [Compound 3] as the compound, how does the IC50 read?
**A.** 1 µg/mL (≈ 2.55 µM)

**Q.** Which IC50 does the source give for `COC(c1ccc(NC(=O)C2CC2(C)C)cc1)c1ccc(NC(=O)C2CC2(C)C)cc1` (centres unmarked) [Compound 12] here?
**A.** > 5 µg/mL

**Q.** `CN(C)c1ccc(CC(=O)Nc2ccc(Cc3ccc(NC(=O)C4CC4(C)C)cc3)cc2)cc1` (centres unmarked) [Compound 25] was tested. Which IC50 did it give?
**A.** 0.03 µg/mL (≈ 0.0658 µM)

**Q.** Which IC50 does the source give for `CC1(C)CC1C(=O)Nc1ccc(C(=NO)c2ccc(NC(=O)C3CC3(C)C)cc2)cc1` (centres unmarked) [Compound 8] here?
**A.** 5 µg/mL (≈ 11.9 µM)

**Q.** Which IC50 does the source give for `CC1(C)CC1C(=O)Nc1ccc(C(O)c2ccc(NC(=O)C3CC3(C)C)cc2)cc1` (centres unmarked) [Compound 11] here?
**A.** 0.12 µg/mL (≈ 0.295 µM)

**Q.** Which IC50 does the source give for `CC1(C)CC1C(=O)Nc1ccc(Cc2ccc(N3C(=O)C4C5C=CC(C5)C4C3=O)cc2)cc1` (centres unmarked) [Compound 40] here?
**A.** 1 µg/mL (≈ 2.27 µM)

**Q.** Which IC50 does the source give for `CC1(C)CC1C(=O)Nc1ccc(COc2ccc(NC(=O)C3CC3(C)C)cc2)cc1` (centres unmarked) [Compound 51] here?
**A.** 1 µg/mL (≈ 2.46 µM)
